Source: article PMC7876048, “Mutant-selective degradation by BRAF-targeting PROTACs” (Nature Communications, 2021)
Entries after “also recorded” stand apart in the source; their conditions may differ.

Key:
BRAF WT = target: T1, BRAF WT (Homo sapiens, UniProt P15056); assay: Elisa kinase inhibition assay (Carna Biosciences); format: biochemical; settings: Km ATP, duplicate
T1 construct: purchased Carna Biosciences
Description: (§1) Kinase assays were performed by Carna Biosciences by their protocol in duplicate using Km amounts of ATP calculated for each kinase.

BRAF V600E [1] = target: T2, BRAF V600E (Homo sapiens, UniProt P15056, V600E); assay: Radiolabeled kinase assay (Reaction Biology); format: biochemical; set-up: purchased Reaction Biology Corps
T2 sequence (P15056 whole entry V600E): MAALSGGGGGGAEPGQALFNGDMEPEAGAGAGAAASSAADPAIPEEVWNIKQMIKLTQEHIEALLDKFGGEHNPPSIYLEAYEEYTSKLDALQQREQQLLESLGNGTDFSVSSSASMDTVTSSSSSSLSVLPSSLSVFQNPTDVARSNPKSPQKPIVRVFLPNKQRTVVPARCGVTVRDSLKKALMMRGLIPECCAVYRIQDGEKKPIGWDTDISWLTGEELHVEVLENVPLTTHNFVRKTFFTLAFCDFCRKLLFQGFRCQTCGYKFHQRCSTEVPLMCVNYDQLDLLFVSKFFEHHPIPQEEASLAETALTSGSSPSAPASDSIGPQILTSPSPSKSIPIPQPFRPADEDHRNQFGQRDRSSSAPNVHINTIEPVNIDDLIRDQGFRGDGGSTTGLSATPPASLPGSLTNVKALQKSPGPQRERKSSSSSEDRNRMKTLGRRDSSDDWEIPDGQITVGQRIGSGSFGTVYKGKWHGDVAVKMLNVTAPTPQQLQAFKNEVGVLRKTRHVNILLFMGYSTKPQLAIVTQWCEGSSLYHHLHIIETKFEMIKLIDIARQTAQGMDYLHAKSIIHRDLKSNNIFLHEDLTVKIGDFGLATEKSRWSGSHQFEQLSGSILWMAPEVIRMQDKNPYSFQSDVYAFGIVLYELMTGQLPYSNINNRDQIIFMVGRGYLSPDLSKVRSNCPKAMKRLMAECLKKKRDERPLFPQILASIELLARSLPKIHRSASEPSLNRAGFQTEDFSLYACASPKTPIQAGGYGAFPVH
Description: Kinase assays were performed by Reaction Biology Corps by their protocol in duplicate using Km amounts of ATP calculated for each kinase.

[2] = tested on: BRAF (SK-MEL-239 cells, heterozygous BRAF^V600E); assay: BRAF degradation by immunoblot in SK-MEL-239 cells; format: cell-based
Description: (§2) Cells were plated in 6 well dishes (5 × 10^5–8 × 10^5 cells) and allowed to attach overnight. […] The plates were then placed on ice and washed 1x with chilled PBS and lysed in buffer containing 25 mM Tris-HCl [pH 7.4], 0.25% sodium deoxycholate, 150 mM NaCl, 1% Triton X-100, supplemented with protease inhibitors (1x Roche protease inhibitor cocktail) and phosphatase inhibitors (10 mM NaF, 1 mM Na3OV4, and 20 mM β-glycerophosphate). Lysates were then cleared at 21,000 g for 10 min at 4 °C. Protein concentrations of the supernatants were then quantified using a Pierce BCA Protein Assay. 12–40 µg of protein were separated using a gradient (4–20%) Criterion TGX precast gel and transferred unto a nitrocellulose membrane. The membranes were then blocked in 5% non-fat milk in TBST (Tris-buffered Saline with Tween 20) for 1 h before probing with the indicated primary antibody overnight. Membranes were imaged using Bio-Rad Image Lab software using ECL prime detection reagent (GE Healthcare, RPN2232 or ThermoScientific, 34095).
(§3) Western blot data was quantified by using the band feature in Image Lab, and values were averaged and analyzed in GraphPad Prism. DC50 and DMAX values were fitted using a three parameter [inhibitor] versus response and reported directly from the Prism output. Mean ± SD and unpaired t-tests were performed in GraphPad Prism.

[3] = Body weight in SK-MEL-246 efficacy study; format: in vivo, mice; settings: either dose (50 mg/kg BID, 100 mg/kg QD)
Description: (§4) 10 million SK-MEL-246 cells were subcutaneously implanted in female nu/nu mice. The tumor volumes and mice weights were measured twice a week after the implantation. […] All studies were performed in compliance with institutional guidelines under an Institutional Animal Care and Use Committee (IACUC) approved protocol. Investigators were not blinded when assessing the outcome of the in vivo experiments.

[4] = tested on: VBC:PROTAC:BRAF ternary complex (V5-BRAF^V600E vs V5-BRAF^WT, NIH3T3 lysates); assay: Cell lysate based ternary complex (GST-VBC pulldown) assay; format: binding; settings: 5000 nM SJF-0628
Description: Glutathione sepharose 4B was washed twice with water and then blocked for 1 h at room temperature with 10% BSA in TBST. The beads were then washed again twice with TBST and once with wash buffer (50 mM HEPES pH 7.5, 150 mM NaCl, 1 mM DTT, 0.01% NP40, 5 mM MgCl2, 10% glycerol) and then purified GST-VBC was immobilized for 2 h at 4 °C at 2.5 pmole per μL of beads. The beads were then washed thrice with wash buffer, resuspended and BRAF WT or V600E protein was added at 500 nM per 50 μL reaction with 5 μL of beads. The bead:BRAF mixture was then aliquoted to separate tubes and PROTAC was added at the indicated concentration (PROTACs were intermediately diluted in 50% DMSO) and this was incubated at 4 °C for 2 h. The beads were washed 4 times with 1 mL column of TBST and then eluted with SDS loading buffer.
For experiments in which the input substrate is a whole cell lysate, the sample was prepared as follows: […] of confluent NIH3T3 cells were doxycycline induced overnight, after which the cells were washed with DPBS and lysed using lysis buffer (50 mM Tris-HCl, pH 7.4, 015 M NaCl, 1 mM EDTA,1% NP40, 10% glycerol). The lysate was cleared by centrifugation and then added to the beads as an input substrate, as above.

[5] = tested on: SK-MEL-246 melanoma xenograft (Class 2, BRAF^G469A); assay: SK-MEL-246 xenograft efficacy study; format: in vivo, mice
Description: as §4

BRAF V600E [6] = target: T2, BRAF V600E; assay: Elisa kinase inhibition assay (Carna Biosciences); format: biochemical; set-up: purchased Carna Biosciences; settings: Km ATP, duplicate
Description: as §1

[7] = target: T3, BRAF^WT (A-431 cells, HER1 amplification) (Homo sapiens, UniProt P15056); assay: BRAF^WT degradation by immunoblot in A-431 cells; format: cell-based
T3 construct: endogenous in cells; host or cells: A-431
T3 sequence (P15056 whole entry): as the sequence (P15056 whole entry V600E) above, with E600V counted along it
Description: as §2, §3

[8] = tested on: SK-MEL-239 C4 cells (BRAF^WT/BRAF-p61^V600E); assay: Cell proliferation (MTS) assay; format: cell-based; settings: 5 days
[9] = target: T4, BRAF^G466V (H1666 cells, heterozygous, Class 3) (Homo sapiens, UniProt P15056, G466V); assay: BRAF degradation by immunoblot in H1666 cells; format: cell-based
T4 construct: endogenous in cells; host or cells: H1666
T4 sequence (P15056 2-766 G466V): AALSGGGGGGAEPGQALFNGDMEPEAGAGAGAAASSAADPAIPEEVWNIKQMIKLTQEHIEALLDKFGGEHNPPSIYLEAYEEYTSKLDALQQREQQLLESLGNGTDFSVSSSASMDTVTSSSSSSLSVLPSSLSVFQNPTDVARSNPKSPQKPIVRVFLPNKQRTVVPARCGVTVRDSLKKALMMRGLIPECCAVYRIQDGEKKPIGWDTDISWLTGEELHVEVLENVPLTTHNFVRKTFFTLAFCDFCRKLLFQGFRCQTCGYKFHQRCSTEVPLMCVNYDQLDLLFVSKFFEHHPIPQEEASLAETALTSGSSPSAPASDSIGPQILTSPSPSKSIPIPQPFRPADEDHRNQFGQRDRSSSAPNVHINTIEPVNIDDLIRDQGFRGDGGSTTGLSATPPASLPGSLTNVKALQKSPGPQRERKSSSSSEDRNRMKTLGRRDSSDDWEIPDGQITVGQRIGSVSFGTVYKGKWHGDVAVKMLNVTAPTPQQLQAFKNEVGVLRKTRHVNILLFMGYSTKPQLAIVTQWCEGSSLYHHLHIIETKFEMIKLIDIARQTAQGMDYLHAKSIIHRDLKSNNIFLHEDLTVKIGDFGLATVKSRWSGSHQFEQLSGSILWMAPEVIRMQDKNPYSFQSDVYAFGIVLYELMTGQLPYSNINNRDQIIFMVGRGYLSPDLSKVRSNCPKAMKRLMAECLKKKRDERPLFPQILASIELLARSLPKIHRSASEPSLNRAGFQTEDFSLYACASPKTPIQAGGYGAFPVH
Description: as §2, §3

[10] = target: T5, BRAF^V600E (A375 xenograft) (Homo sapiens, UniProt P15056, V600E); assay: A375 xenograft study, BRAF degradation in tumor; format: in vivo, mice; settings: 50 mg/kg or 150 mg/kg i.p. once a day for 3 days, 8 h after final dose
T5 construct: 5 million A375 cells were subcutaneously implanted in female nu/nu mice; endogenous in cells; host or cells: A375 cells as subcutaneous xenograft tumour in female nu/nu mice
T5 sequence (P15056 whole entry V600E): as the sequence (P15056 whole entry V600E) above
Description: 5 million A375 cells were subcutaneously implanted in female nu/nu mice. […] Mice were sacrificed 8 h after the final dose. Tissues were harvested, flash frozen, and lysed in 1X cell lysis buffer (Cell Signaling #9803) supplemented with protease and phosphatase inhibitors. Harvested tumors were disrupted using metal beads in a Tissuelyser. Homogenates were normalized for protein content and analyzed using SDS-PAGE and Western blotting. All studies were performed in compliance with institutional guidelines under an IACUC approved protocol.

[11] = target: T6, V5-tagged BRAF^WT (NIH3T3 cells) (Homo sapiens, UniProt P15056); assay: V5-BRAF degradation by immunoblot in inducible NIH3T3 cells; format: cell-based
T6 construct: expressed in transfected cells; host or cells: NIH3T3 (mouse fibroblasts), doxycycline-inducible expression
T6 sequence (P15056 whole entry): as the sequence (P15056 whole entry V600E) above, with E600V counted along it
Description: as §2, §3

[12] = tested on: H1666 cells (Class 3, BRAF^G466V); assay: Cell proliferation (MTS) assay; format: cell-based; settings: 5 days

T1 sequence (P15056 whole entry): as the sequence (P15056 whole entry V600E) above, with E600V counted along it

CCCS(=O)(=O)Nc1ccc(F)c(C(=O)c2c[nH]c3ncc(-c4ccc(N5CCN(CC(=O)NC(C(=O)N6CC(O)CC6C(=O)NCc6ccc(-c7scnc7C)cc6)C(C)(C)C)CC5)cc4)cc23)c1F (stereo not shown) [SJF-0628]
IC50 (BRAF WT): 39.2 nM | IC50 (BRAF V600E [1]): 1.87 nM | BRAF degradation [2]: minimal BRAF degradation | body weight loss [3]: did not observe a significant body weight loss | ternary complex with VHL, BRAF^V600E relative to BRAF^WT [4]: ~ 3 fold | effect on tumor growth ([5]; once daily 100 mg/kg i.p.): minor response | effect on tumor growth ([5]; twice daily 50 mg/kg i.p., within 10 days, 50 mg/kg): tumor regression; also recorded: tumor shrinkage beyond the initial tumor size | IC50 (BRAF V600E [6]): 24.4 nM | degradation of BRAF^WT ([7]; A-431 cells, PROTAC concentrations greater than 1 µM): ~ 30% | PROTAC-dependent degradation of BRAF^WT ([7]; GDC-0623 pre-treatment (500 nM, 3 h), SJF-0628 20 h, A431 (also OVCAR-8, SK-BR-3)): minimal PROTAC-dependent degradation | EC50 ([8]; 120 h, read-out: EC50, cell growth): 218 nM | decrease in cell growth [8]: ~ 80% | DC50 [9]: 29 nM | Dmax ([9]; NCI-H1666): > 80% | DMAX, degradation of BRAF in the xenograft [10]: > 90% | PROTAC-mediated BRAF^WT degradation ([11]; 1 µM PD0325901 pre-treatment 3 h, SJF-0628 1 μM 20 h): ~ 80% | degradation of BRAF^WT by the PROTAC ([11]; 1 µM SCH772984 pre-treatment 3 h, SJF-0628 20 h): ~ 90% | expression of WT RAF family members ([11]; doxycycline-inducible V5-BRAF, no pre-treatment): spared BRAF^WT, ARAF, and CRAF | cell growth inhibition [12]: 65%
